In US20240041838A1, “METHODS AND COMPOSITIONS FOR INHIBITION OF NEUTROPHIL RECRUITMENT IN MYCOCARDIAL ISCHEMIA-REPERFUSION INJURY” (University of Connecticut, priority 2022, published 2024):

System: mouse myocardial I/R injury
Experiment: neutrophil recruitment in mouse myocardial I/R injury (multi-photon microscopy, flow cytometry)
Format: in vivo
Conditions: I/R 35/60 minutes
Source text: C57BL/6J wild-type mice (000664; JAX) were originally obtained from the Jackson Laboratory. LysM-EGFP or Lyz2-EGFP mice were originally obtained from Albert Einstein College of Medicine through a material transfer agreement. Mice were fed a standard rodent chow diet and were housed in microisolator cages in a pathogen-free facility in the Center for Comparative Medicine at UConn Health. All experiments followed the UConn Health Institutional Animal Care and Use Committee (IACUC) guidelines, and approval for the use of rodents was obtained from the UConn Health IACUC according to criteria outlined in the Guide for the Care and Use of Laboratory Animals from the National Institutes of Health. Both male and female mice aged from 12 to 16 weeks were used in the experiments.
Mice were subjected to 35 minutes of myocardial ischemia and 1 (for multi-photon microscopy and flow cytometry) or 22-26 (for TTC-phthalo-blue staining) hours of reperfusion. […] Briefly, anesthesia was induced with an intraperitoneal injection of ketamine hydrochloride (125 mg·kg^−1) and xylazine (12.5 mg·kg^−1). Mice were intubated with 24G×3/4″ Surflo i.v. catheter and ventilated using MiniVent 845 (Harvard Apparatus).
Surgeries were performed under an SMZ168 Stereo Zoom microscope (Motic). Ischemia was achieved by ligating the left anterior descending coronary artery (LAD) using a 6-0 silk suture with a section of PE-10 tubing placed over the LAD, 1 mm from the tip of the normally positioned left atrium. One important problem in drug administration is water solubility, which greatly affects drug absorption and bioavailability. […] In clinics, the primary percutaneous coronary intervention aims to be performed less than 90 min (within 60 min is preferable) after the patient arrives. […] After occlusion for 35 minutes, reperfusion was initiated by releasing the ligature and removing the PE-10 tubing. The chest wall was closed, the animal extubated, and body temperature was maintained by use of a 37° C. warm pad. Hearts were harvested 1 or 22-26 hours later. The loosened suture was left in place and then retied for the purpose of evaluating the ischemic area. Sham control and no drug administered control were performed as well.
To assess the neutrophil recruitment in myocardial I/R injury, LysM-EGFP mice underwent 35 minutes of ischemia and 1 hour of reperfusion. […] After being fixed with 1% PFA and washes with ice-cold PBS, cell fluorescence was assessed with an LSRII (BD Biosciences, San Jose, CA) and analyzed with FlowJo software (version 10.6). […]

Q: Which results are given for `CC(C)(C)C(=O)/C(=C\c1cccc([N+](=O)[O-])c1)n1cncn1` [Nexinhib20, 4,4-dimethyl-1-(3-nitrophenyl)-2-(1H-1,2,4-triazol-1-yl)-1-penten-3-one]?
A: neutrophils retained in the blood circulation compared to vehicle controls (1 μmol per mouse i.p.): doubled; percentage of neutrophils in heart leukocytes (1 μmol per mouse i.p., vehicle about 50%): about 30%; heart neutrophil counts (CD45^+Ly6G^+) (1 μmol per mouse i.p., vehicle about 6000): about 2000; LysM-GFP^+ leukocyte recruitment to the coronary artery (EGFP fluorescence) (LysM-EGFP mice, 1 μmol per mouse i.p. 30 minutes before reperfusion): significantly limited
